Measured values: article PMC10905675, “INX-315, a Selective CDK2 Inhibitor, Induces Cell Cycle Arrest and Senescence in Solid Tumors” (Cancer Discovery, 2023)

Tests used:
Assay in all cases: SelectScreen ZLYTE
Assay type in all cases: biochemical
Settings in all cases: INX-0315 at 100nM
[1] = biological target: T1, RET S891A (Homo sapiens, UniProt P07949, S891A)
T1 construct: purchased Thermo Fisher Scientific SelectScreen (plus Nanosyn / Reaction Biology for CDK/cyclin lines)
Procedure, shortened: (§1)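 Activity and binding formats were run as established by the profiling service; INX-315 entered at one concentration (100 nmol/L, 1% DMSO) before titration over a 1 µmol/L–0.0495 nmol/L range in ten steps.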

[2] = biological target: T2, MAPK13 (p38 delta) (Homo sapiens, UniProt O15264)
T2 construct: purchased Thermo Fisher Scientific SelectScreen (plus Nanosyn / Reaction Biology for CDK/cyclin lines)
Procedure, shortened: as §1

[3] = biological target: T3, FLT1 (VEGFR1) (Homo sapiens, UniProt P17948)
T3 construct: purchased Thermo Fisher Scientific SelectScreen (plus Nanosyn / Reaction Biology for CDK/cyclin lines)
Procedure, shortened: as §1

[4] = biological target: T4, NEK6 (Homo sapiens, UniProt Q9HC98)
T4 construct: purchased Thermo Fisher Scientific SelectScreen (plus Nanosyn / Reaction Biology for CDK/cyclin lines)
Procedure, shortened: as §1

[5] = biological target: T5, RPS6KA6 (RSK4) (Homo sapiens, UniProt Q9UK32)
T5 construct: purchased Thermo Fisher Scientific SelectScreen (plus Nanosyn / Reaction Biology for CDK/cyclin lines)
Procedure, shortened: as §1

[6] = biological target: T6, ABL1 (Homo sapiens, UniProt P00519)
T6 construct: purchased Thermo Fisher Scientific SelectScreen (plus Nanosyn / Reaction Biology for CDK/cyclin lines)
Procedure, shortened: as §1

[7] = biological target: T7, INSR (Homo sapiens, UniProt P06213)
T7 construct: purchased Thermo Fisher Scientific SelectScreen (plus Nanosyn / Reaction Biology for CDK/cyclin lines)
Procedure, shortened: as §1

[8] = biological target: T8, FLT4 (VEGFR3) (Homo sapiens, UniProt P35916)
T8 construct: purchased Thermo Fisher Scientific SelectScreen (plus Nanosyn / Reaction Biology for CDK/cyclin lines)
Procedure, shortened: as §1

[9] = biological target: T9, MAPK11 (p38 beta) (Homo sapiens, UniProt Q15759)
T9 construct: purchased Thermo Fisher Scientific SelectScreen (plus Nanosyn / Reaction Biology for CDK/cyclin lines)
Procedure, shortened: as §1

[10] = biological target: T10, AXL (Homo sapiens, UniProt P30530)
T10 construct: purchased Thermo Fisher Scientific SelectScreen (plus Nanosyn / Reaction Biology for CDK/cyclin lines)
Procedure, shortened: as §1

[11] = biological target: T11, CSNK1E (CK1 epsilon) R178C (Homo sapiens, UniProt P49674, R178C)
T11 construct: purchased Thermo Fisher Scientific SelectScreen (plus Nanosyn / Reaction Biology for CDK/cyclin lines)
Procedure, shortened: as §1

[12] = biological target: T12, CSK (Homo sapiens, UniProt P41240)
T12 construct: purchased Thermo Fisher Scientific SelectScreen (plus Nanosyn / Reaction Biology for CDK/cyclin lines)
Procedure, shortened: as §1

[13] = biological target: T13, TYK2 (Homo sapiens, UniProt P29597)
T13 construct: purchased Thermo Fisher Scientific SelectScreen (plus Nanosyn / Reaction Biology for CDK/cyclin lines)
Procedure, shortened: as §1

[14] = biological target: T14, PRKD2 (PKD2) (Homo sapiens, UniProt Q9BZL6)
T14 construct: purchased Thermo Fisher Scientific SelectScreen (plus Nanosyn / Reaction Biology for CDK/cyclin lines)
Procedure, shortened: as §1

[15] = biological target: T15, NEK9 (Homo sapiens, UniProt Q8TD19)
T15 construct: purchased Thermo Fisher Scientific SelectScreen (plus Nanosyn / Reaction Biology for CDK/cyclin lines)
Procedure, shortened: as §1

[16] = biological target: T16, MAP4K5 (KHS1) (Homo sapiens, UniProt Q9Y4K4)
T16 construct: purchased Thermo Fisher Scientific SelectScreen (plus Nanosyn / Reaction Biology for CDK/cyclin lines)
Procedure, shortened: as §1

[17] = biological target: T17, CLK2 (Homo sapiens, UniProt P49760)
T17 construct: purchased Thermo Fisher Scientific SelectScreen (plus Nanosyn / Reaction Biology for CDK/cyclin lines)
Procedure, shortened: as §1

[18] = biological target: T18, PDGFRA V561D (Homo sapiens, UniProt P16234, V561D)
T18 construct: purchased Thermo Fisher Scientific SelectScreen (plus Nanosyn / Reaction Biology for CDK/cyclin lines)
Procedure, shortened: as §1

[19] = biological target: T19, NTRK2 (TRKB) (Homo sapiens, UniProt Q16620)
T19 construct: purchased Thermo Fisher Scientific SelectScreen (plus Nanosyn / Reaction Biology for CDK/cyclin lines)
Procedure, shortened: as §1

[20] = biological target: T20, SRPK2 (Homo sapiens, UniProt P78362)
T20 construct: purchased Thermo Fisher Scientific SelectScreen (plus Nanosyn / Reaction Biology for CDK/cyclin lines)
Procedure, shortened: as §1

[21] = biological target: T21, PRKG1 (Homo sapiens, UniProt Q13976)
T21 construct: purchased Thermo Fisher Scientific SelectScreen (plus Nanosyn / Reaction Biology for CDK/cyclin lines)
Procedure, shortened: as §1

[22] = biological target: T22, FRAP1 (mTOR) (Homo sapiens, UniProt P42345)
T22 construct: purchased Thermo Fisher Scientific SelectScreen (plus Nanosyn / Reaction Biology for CDK/cyclin lines)
Procedure, shortened: as §1

[23] = biological target: T23, TBK1 (Homo sapiens, UniProt Q9UHD2)
T23 construct: purchased Thermo Fisher Scientific SelectScreen (plus Nanosyn / Reaction Biology for CDK/cyclin lines)
Procedure, shortened: as §1

[24] = biological target: T24, ABL1 F317I (Homo sapiens, UniProt P00519, F317I)
T24 construct: purchased Thermo Fisher Scientific SelectScreen (plus Nanosyn / Reaction Biology for CDK/cyclin lines)
Procedure, shortened: as §1

[25] = biological target: T25, SGKL (SGK3) (Homo sapiens, UniProt Q96BR1)
T25 construct: purchased Thermo Fisher Scientific SelectScreen (plus Nanosyn / Reaction Biology for CDK/cyclin lines)
Procedure, shortened: as §1

[26] = biological target: T26, BRAF V599E (Homo sapiens, UniProt P15056, V600E)
T26 construct: purchased Thermo Fisher Scientific SelectScreen (plus Nanosyn / Reaction Biology for CDK/cyclin lines)
Procedure, shortened: as §1

[27] = biological target: T27, CSNK1E (CK1 epsilon) (Homo sapiens, UniProt P49674)
T27 construct: purchased Thermo Fisher Scientific SelectScreen (plus Nanosyn / Reaction Biology for CDK/cyclin lines)
Procedure, shortened: as §1

[28] = biological target: T28, CSNK1G2 (CK1 gamma 2) (Homo sapiens, UniProt P78368)
T28 construct: purchased Thermo Fisher Scientific SelectScreen (plus Nanosyn / Reaction Biology for CDK/cyclin lines)
Procedure, shortened: as §1

[29] = biological target: T29, MARK1 (MARK) (Homo sapiens, UniProt Q9P0L2)
T29 construct: purchased Thermo Fisher Scientific SelectScreen (plus Nanosyn / Reaction Biology for CDK/cyclin lines)
Procedure, shortened: as §1

[30] = biological target: T30, PRKCE (PKC epsilon) (Homo sapiens, UniProt Q02156)
T30 construct: purchased Thermo Fisher Scientific SelectScreen (plus Nanosyn / Reaction Biology for CDK/cyclin lines)
Procedure, shortened: as §1

[31] = biological target: T31, HIPK3 (YAK1) (Homo sapiens, UniProt Q9H422)
T31 construct: purchased Thermo Fisher Scientific SelectScreen (plus Nanosyn / Reaction Biology for CDK/cyclin lines)
Procedure, shortened: as §1

[32] = biological target: T32, NEK4 (Homo sapiens, UniProt P51957)
T32 construct: purchased Thermo Fisher Scientific SelectScreen (plus Nanosyn / Reaction Biology for CDK/cyclin lines)
Procedure, shortened: as §1

[33] = biological target: T33, PRKCZ (PKC zeta) (Homo sapiens, UniProt Q05513)
T33 construct: purchased Thermo Fisher Scientific SelectScreen (plus Nanosyn / Reaction Biology for CDK/cyclin lines)
Procedure, shortened: as §1

[34] = biological target: T34, PRKCQ (PKC theta) (Homo sapiens, UniProt Q04759)
T34 construct: purchased Thermo Fisher Scientific SelectScreen (plus Nanosyn / Reaction Biology for CDK/cyclin lines)
Procedure, shortened: as §1

[35] = biological target: T35, AMPK (A2/B1/G2) (Homo sapiens, UniProt P54646)
T35 construct: purchased Thermo Fisher Scientific SelectScreen (plus Nanosyn / Reaction Biology for CDK/cyclin lines)
Procedure, shortened: as §1

[36] = biological target: T36, LYN B (Homo sapiens, UniProt P07948)
T36 construct: purchased Thermo Fisher Scientific SelectScreen (plus Nanosyn / Reaction Biology for CDK/cyclin lines)
Procedure, shortened: as §1

[37] = biological target: T37, PDGFRA T674I (Homo sapiens, UniProt P16234, T674I)
T37 construct: purchased Thermo Fisher Scientific SelectScreen (plus Nanosyn / Reaction Biology for CDK/cyclin lines)
Procedure, shortened: as §1

T12 sequence (P41240 whole entry): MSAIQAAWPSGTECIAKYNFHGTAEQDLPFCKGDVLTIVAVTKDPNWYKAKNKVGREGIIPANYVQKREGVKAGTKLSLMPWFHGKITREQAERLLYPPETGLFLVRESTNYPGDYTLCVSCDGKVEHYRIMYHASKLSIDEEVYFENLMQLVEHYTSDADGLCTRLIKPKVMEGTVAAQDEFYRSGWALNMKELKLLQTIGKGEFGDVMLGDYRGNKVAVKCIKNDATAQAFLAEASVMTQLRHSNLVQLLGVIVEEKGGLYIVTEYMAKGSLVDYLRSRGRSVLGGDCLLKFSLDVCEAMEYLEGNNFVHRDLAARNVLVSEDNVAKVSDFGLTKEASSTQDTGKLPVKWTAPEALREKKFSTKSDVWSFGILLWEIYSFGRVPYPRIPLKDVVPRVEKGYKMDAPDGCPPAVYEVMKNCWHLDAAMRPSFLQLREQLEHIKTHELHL
T1 sequence (P07949 29-1114 S891A): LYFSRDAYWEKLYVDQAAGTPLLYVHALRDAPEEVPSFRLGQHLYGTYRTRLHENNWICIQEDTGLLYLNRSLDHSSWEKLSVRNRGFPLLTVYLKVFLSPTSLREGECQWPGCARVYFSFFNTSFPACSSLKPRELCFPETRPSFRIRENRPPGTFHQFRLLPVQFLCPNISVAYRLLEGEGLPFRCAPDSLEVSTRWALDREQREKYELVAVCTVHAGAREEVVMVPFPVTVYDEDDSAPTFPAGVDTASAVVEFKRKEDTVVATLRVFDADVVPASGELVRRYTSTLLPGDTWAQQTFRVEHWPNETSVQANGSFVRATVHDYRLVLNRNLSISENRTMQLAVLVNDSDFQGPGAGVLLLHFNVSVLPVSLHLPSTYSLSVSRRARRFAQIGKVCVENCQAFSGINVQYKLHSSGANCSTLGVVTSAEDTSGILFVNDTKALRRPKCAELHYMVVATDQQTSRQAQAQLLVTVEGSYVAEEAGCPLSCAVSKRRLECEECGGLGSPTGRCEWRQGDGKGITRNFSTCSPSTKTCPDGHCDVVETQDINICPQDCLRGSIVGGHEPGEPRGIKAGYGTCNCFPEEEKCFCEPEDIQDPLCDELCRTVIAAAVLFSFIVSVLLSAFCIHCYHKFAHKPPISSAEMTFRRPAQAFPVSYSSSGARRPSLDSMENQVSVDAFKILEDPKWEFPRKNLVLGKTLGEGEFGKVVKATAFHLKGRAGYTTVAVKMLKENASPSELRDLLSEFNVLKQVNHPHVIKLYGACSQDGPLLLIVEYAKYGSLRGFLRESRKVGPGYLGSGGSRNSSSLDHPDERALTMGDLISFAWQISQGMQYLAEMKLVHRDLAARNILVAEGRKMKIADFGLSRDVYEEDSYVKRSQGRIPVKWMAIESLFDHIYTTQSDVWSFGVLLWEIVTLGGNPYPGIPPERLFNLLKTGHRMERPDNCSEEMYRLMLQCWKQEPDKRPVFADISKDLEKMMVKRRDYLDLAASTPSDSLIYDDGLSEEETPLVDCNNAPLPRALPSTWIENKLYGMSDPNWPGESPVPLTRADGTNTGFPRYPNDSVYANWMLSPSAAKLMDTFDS
T4 sequence (Q9HC98 whole entry): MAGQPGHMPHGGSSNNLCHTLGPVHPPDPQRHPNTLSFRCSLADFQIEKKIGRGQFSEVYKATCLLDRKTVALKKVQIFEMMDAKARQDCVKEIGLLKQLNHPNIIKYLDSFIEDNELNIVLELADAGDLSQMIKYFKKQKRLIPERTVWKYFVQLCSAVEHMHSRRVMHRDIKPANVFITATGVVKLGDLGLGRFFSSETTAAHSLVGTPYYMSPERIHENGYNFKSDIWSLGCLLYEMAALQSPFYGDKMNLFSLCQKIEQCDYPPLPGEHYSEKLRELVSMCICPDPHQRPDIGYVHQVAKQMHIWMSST
T17 sequence (P49760 whole entry): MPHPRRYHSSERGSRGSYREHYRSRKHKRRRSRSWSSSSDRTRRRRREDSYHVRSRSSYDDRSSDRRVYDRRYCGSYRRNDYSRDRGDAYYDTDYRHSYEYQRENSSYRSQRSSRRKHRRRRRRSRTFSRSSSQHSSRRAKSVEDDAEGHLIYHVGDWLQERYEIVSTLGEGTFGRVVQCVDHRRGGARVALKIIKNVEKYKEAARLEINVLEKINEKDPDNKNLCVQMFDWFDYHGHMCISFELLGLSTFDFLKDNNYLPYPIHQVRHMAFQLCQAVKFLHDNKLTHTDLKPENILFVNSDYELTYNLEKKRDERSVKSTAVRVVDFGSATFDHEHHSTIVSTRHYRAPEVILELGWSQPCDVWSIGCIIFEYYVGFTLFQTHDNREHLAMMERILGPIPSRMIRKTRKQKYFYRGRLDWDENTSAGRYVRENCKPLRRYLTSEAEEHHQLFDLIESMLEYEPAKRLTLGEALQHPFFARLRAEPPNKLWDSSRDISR
T5 sequence (Q9UK32 whole entry): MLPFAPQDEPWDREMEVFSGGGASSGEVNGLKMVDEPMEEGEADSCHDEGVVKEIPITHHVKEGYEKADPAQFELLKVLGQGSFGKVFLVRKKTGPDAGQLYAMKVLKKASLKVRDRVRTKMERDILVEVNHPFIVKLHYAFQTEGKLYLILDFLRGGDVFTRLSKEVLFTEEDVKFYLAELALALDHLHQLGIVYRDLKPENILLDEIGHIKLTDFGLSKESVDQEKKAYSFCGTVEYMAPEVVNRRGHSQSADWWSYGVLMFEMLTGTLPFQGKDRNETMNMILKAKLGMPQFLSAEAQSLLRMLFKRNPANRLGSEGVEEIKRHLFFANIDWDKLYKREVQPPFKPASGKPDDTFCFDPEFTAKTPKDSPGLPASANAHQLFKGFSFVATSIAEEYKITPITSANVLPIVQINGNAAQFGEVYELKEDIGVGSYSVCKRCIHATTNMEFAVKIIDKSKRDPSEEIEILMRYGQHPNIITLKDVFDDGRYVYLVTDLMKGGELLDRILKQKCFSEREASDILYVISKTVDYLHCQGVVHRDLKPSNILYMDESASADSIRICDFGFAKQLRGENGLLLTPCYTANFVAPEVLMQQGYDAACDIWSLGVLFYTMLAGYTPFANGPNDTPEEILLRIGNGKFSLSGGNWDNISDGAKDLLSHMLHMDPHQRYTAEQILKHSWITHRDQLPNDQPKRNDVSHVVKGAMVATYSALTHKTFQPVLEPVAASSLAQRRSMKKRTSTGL
T24 sequence (P00519 whole entry F317I): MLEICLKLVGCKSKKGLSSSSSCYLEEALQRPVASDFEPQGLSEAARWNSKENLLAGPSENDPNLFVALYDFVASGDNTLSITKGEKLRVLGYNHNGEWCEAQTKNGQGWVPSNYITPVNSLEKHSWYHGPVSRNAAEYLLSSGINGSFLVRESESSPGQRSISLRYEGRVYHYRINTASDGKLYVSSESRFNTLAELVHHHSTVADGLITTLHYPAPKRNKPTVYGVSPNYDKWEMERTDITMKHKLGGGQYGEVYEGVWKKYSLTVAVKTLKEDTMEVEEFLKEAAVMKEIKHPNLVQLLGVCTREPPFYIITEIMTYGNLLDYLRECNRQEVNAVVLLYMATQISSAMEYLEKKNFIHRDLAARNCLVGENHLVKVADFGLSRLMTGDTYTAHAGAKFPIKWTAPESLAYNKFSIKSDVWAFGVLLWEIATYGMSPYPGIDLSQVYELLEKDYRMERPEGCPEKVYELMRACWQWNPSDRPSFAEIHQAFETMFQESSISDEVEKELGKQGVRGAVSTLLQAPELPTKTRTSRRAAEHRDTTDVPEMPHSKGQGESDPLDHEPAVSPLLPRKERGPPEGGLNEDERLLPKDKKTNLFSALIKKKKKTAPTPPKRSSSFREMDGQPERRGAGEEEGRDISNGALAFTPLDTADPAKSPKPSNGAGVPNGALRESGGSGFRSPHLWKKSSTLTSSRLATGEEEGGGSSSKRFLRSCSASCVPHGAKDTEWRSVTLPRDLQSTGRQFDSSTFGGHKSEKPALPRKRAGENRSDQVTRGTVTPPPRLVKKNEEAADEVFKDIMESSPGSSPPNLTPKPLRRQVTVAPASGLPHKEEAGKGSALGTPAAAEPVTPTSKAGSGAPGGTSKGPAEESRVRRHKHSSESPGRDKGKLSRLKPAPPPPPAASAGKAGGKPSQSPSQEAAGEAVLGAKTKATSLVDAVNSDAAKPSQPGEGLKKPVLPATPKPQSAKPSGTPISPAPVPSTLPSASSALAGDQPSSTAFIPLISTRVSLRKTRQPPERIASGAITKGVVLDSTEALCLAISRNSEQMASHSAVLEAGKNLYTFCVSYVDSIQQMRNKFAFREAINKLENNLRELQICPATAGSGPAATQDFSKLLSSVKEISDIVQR
T21 sequence (Q13976 whole entry): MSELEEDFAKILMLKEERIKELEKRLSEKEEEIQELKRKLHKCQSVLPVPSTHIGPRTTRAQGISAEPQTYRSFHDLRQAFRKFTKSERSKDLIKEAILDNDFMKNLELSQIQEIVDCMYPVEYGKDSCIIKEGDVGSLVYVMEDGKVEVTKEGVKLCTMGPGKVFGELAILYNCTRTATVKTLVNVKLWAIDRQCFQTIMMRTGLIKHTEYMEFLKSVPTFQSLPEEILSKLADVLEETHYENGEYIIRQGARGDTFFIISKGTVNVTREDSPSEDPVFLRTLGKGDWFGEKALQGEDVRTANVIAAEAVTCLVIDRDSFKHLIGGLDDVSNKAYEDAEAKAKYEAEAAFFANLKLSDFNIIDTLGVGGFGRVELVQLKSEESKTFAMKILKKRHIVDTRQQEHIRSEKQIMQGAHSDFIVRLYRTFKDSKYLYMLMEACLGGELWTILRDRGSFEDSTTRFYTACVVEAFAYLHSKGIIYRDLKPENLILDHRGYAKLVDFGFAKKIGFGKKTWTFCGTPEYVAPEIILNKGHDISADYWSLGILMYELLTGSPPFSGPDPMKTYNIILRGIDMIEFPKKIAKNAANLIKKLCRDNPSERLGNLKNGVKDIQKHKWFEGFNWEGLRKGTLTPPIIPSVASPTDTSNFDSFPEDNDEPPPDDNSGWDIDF
T6 sequence (P00519 whole entry): as the sequence (P00519 whole entry F317I) above, with I317F counted along it

NS(=O)(=O)c1ccc(Nc2ncc3cc4n(c3n2)C2(CCCCC2)C(=O)NN4)cc1 [INX-315]
inhibition at 0.1 µM [1]: 46% | inhibition at 0.1 µM [2]: 5% | inhibition at 0.1 µM [3]: 11% | inhibition at 0.1 µM [4]: 1% | inhibition at 0.1 µM [5]: 56% | inhibition at 0.1 µM [6]: 14% | inhibition at 0.1 µM [7]: 7% | inhibition at 0.1 µM [8]: 53% | inhibition at 0.1 µM [9]: 7% | inhibition at 0.1 µM [10]: 17% | inhibition at 0.1 µM [11]: 5% | inhibition at 0.1 µM [12]: 1% | inhibition at 0.1 µM [13]: 89% | inhibition at 0.1 µM [14]: 5% | inhibition at 0.1 µM [15]: 2% | inhibition at 0.1 µM [16]: 23% | inhibition at 0.1 µM [17]: 8% | inhibition at 0.1 µM [18]: 53% | inhibition at 0.1 µM [19]: 52% | inhibition at 0.1 µM [20]: 2% | inhibition at 0.1 µM [21]: 7% | inhibition at 0.1 µM [22]: 0% | inhibition at 0.1 µM [23]: 5% | inhibition at 0.1 µM [24]: 8% | inhibition at 0.1 µM [25]: 6% | inhibition at 0.1 µM [26]: 7% | inhibition at 0.1 µM [27]: -5% | inhibition at 0.1 µM [28]: 3% | inhibition at 0.1 µM [29]: 9% | inhibition at 0.1 µM [30]: 3% | inhibition at 0.1 µM [31]: 4% | inhibition at 0.1 µM [32]: 15% | inhibition at 0.1 µM [33]: 10% | inhibition at 0.1 µM [34]: 8% | inhibition at 0.1 µM [35]: 20% | inhibition at 0.1 µM [36]: 17% | inhibition at 0.1 µM [37]: -1%
